Data taken from patent US20080081801A1, “PORPHYRIN OXYGEN INFUSION FOR INCREASING CONCENTRATIONS IN TUMOR TISSUES” (priority 2002, published 2008).

Test system: Ascites hepatoma LY80
Experiment: Oxygen partial pressure in tumor tissues of tumor-bearing rats after intra-arterial injection of the sample (phosphorescence quenching, PdPor, OxySpot)
Assay type: in vivo, Donryu rats
Settings: oxygen-saturated sample
Experimental: Animals with cancer were prepared by transplanting tumor cells in desired sites of laboratory animals such as, for example, rats, hamsters, rabbits or beagles.
Rats were bred for several days until tumors develop and then subjected to experiments under anesthesia (e.g., using Nembutal, diethyl ether or halothane anesthetic gas). Rats were intubated through the cervical trachea and ventilated under positive pressure by a respirator. A polyethylene catheter was inserted into a left carotid artery so that a distal end of the catheter is located at a position short of a bifurcation of the common iliac artery, and then backward cannulation was carried out to provide an administration rout of sample in the descending aorta.
The oxygen partial pressure in the tumor tissues may be determined by intravenously injecting a phosphorescent probe (palladium coproporphyrin (PdPor)), irradiating light, and monitoring a phosphorescence quenching time with an oxygen partial pressure monitor. PdPor is intravenously injected through a tail vein at 5-20 minutes before administration of the sample. […] The oxygen partial pressure in the tumor site of the right leg was measured at 5 to 30 points in air or an atmosphere containing 99% oxygen with a device for measurement of an oxygen partial pressure (e.g., OxySpot (Trademark) made by Medical System Corp.), and served as controls. […]

bovine serum albumin: serum albumin, injected oxygen-saturated without porphyrin
change in the oxygen partial pressure (PO2) in the tumor tissue: no change
